# Data taken from EPA's ToxValDB 9.5 (doi:10.2903/j.efsa.2011.2087).
# Tests used:
# Typhlodromus pyri = assay: LR50; higher = less toxic; settings: acute; duration: 7 days; mortality
# Tagia sp. = settings: acute; duration: 14 days; mortality
# Daphnia magna = settings: chronic/long-term; duration: 21 days; reproduction
# Cyprinodon variegatus = settings: acute; duration: 96 hours; mortality
# Apis mellifera = settings: acute; duration: 96 hours; dermal; mortality
# Bibionidae = settings: chronic/long-term; duration: 28 days
# Pimephales promelas = settings: chronic/long-term; duration: 272 days; growth
# Colinus virginianus = settings: reproduction developmental
# Oncorhynchus mykiss = settings: acute; duration: 96 hours; mortality
smiles,measurement,setting,value
C#CCOS(=O)OC1CCCCC1Oc1ccc(C(C)(C)C)cc1 (stereo not drawn) [Propargite],LR50,Typhlodromus pyri,4.5 g/ha
same,LC50,Tagia sp.,378 mg/kg
same,NOEC,Daphnia magna,0.009 mg/L
same,LC50,Cyprinodon variegatus,0.055 µg/mL
same,LD50,Apis mellifera,47.9 µg/piece
same,LD50,"Anas platyrhynchos; acute, oral, unspecified, mortality",> 4640 mg/kg
same,NOEC,Anas platyrhynchos; reproductive,13.5 mg/kg-day
same,NOEC,Bibionidae,0.32 mg/L
same,LD50,"Rattus norvegicus; acute, oral, mortality",2640 mg/kg-day
same,NOEL,Rattus norvegicus; chronic,6.3 mg/kg-day
same,NOEC,Pimephales promelas,0.0057 mg/L
same,NOEC,Colinus virginianus,142 mg/kg-day
same,LC50,Oncorhynchus mykiss,0.043 µg/mL
